Measured values taken from US6319929A, “Suksdorfin analogs, compositions thereof, and methods for making and using thereof” (priority 1998, dated 2001).
pEC50, pIC50: −log10 of the molar value. Where two headings read alike, the source gives them in different places.

Key:
[1] = system: HIV-1 replication in H9 cells; assay: HIV-1 replication inhibition in acutely infected H9 lymphocytes (p24 antigen ELISA); format: cell-based, HIV-1 (IIIB strain); conditions: for anti-HIV activity in H9 cells (in words) / EC50: acutely infected H9 cells
Method: (§1) HIV inhibition assay. The HIV inhibition was measured as described herein. Briefly, H9 cells, a T cell line, (3.5×10^6 cells/ml) were incubated in the presence or absence of HIV-1 (IIIB strain, 0.01-0.1 TCID50 /cell) for 1 hour at 37° C. Cells were washed thoroughly and resuspended at a final concentration of 2×10^5 cells/ml in the presence or absence of compound. After incubation for 3-4 days at 37° C., the cell density of uninfected cultures was determined by cell count to assess toxicity of the drug. An aliquot of each cell-free supernatant was assayed by p24 antigen ELISA to quantitate the amount of HIV-1 present in the infected cultures. Test compounds were considered to be active at a particular concentration if p24 antigen levels were less than 70% of infected, untreated controls and were nontoxic to uninfected H9 cells.
(§2) HIV Growth Inhibition Assay: The T cell line, H9, and the promonocytic cell line, U937, were maintained separately in continuous culture with complete medium (RPMI 1640 and […] fetal calf serum (FCS) at 5% CO2 and 37° C. Cell lines were used in experiments only when in log phase of growth; whereas, uninfected peripheral blood mononuclear cells (PBMCs) were first stimulated with PHA (1 μg/ml) for 3 days. All cell targets were incubated with HIV-1 (IIIB isolate, TCID50 10 ^4 IU/mi, at a multiplicity of infection of 0.1-0.01 IU/cell) for 1 hour at 37° C. and 5% CO2. The cell lines and PBMCs were washed thoroughly to remove unabsorbed virions and resuspended at 4×10^5 cells/ml in complete medium or complete medium with 10% v/v interleukin […] IL-2, respectively. Aliquots ( ml) were placed in wells of 24-well culture plates containing an equal volume of test compound (diluted in the appropriate culture medium). After incubation for 4 days at 37° C., cell density of uninfected cultures was determined by counting cells in a Coulter counter to assess toxicity of the test compound. A p24 antigen ELISA assay was used to determine the level of virus released in the medium of the HIV-infected cultures. The p24 antigen assay uses a HIV-1 anti-p24 specific monoclonal antibody as the capture antibody coated-on 96-well plates. Following a sample incubation period, rabbit serum containing antibodies for HIV-1 p24 is used to tag any p24 "captured" onto the microtiter well surface. Peroxidase conjugated goat anti-rabbit serum is then used to tag HIV-1 p24 specific rabbit antibodies which have complexed with captured p24. […] The cut-off for the p24 ELISA assay is 12. pg/ml. P24 in the culture medium was quantitated against a standard curve containing known amounts of p24. The effective (EC50) and inhibitory (IC50) concentrations (for anti-HIV activity and cytotoxicity, respectively) were determined graphically. Both the EC50 and IC50 values were calculated by plotting drug concentration versus percent inhibition, and then identifying a 50% inhibition value from the graph.

[2] = system: uninfected H9 cells; assay: Toxicity to uninfected H9 cells (cell growth); format: cell-based; conditions: Homo sapiens; for IC50: concentration which inhibits uninfected cell growth by 50%
Method: as §1, §2

[3] = system: chronically HIV-1 infected ACH-2 cells; assay: Virus expression from chronically HIV-1 infected T cell line ACH-2 (p24 antigen ELISA); format: cell-based; conditions: ACH-2 cells; 4320 min
Method: Effects of suksdorfin analogs on Chronically HIV-1 infected cells. The experimental design is as follows: The phorbol ester, PMA (10^-8 M) and various concentrations of suksdorfin were either added or not added to both the chronically HIV-1 infected T cell line (ACH-2) and to the chronically HIV-1 infected monocytic cell line (U1). Cell-free supernatant was collected 72 hours post culture for p24 antigen ELISA.
Results (Table 11) from adding compound 16 to the chronically HIV-infected T cell line, ACH-2, according to methods in above examples. ACH-2 are a chronically HIV-1 infected T cell line. It was derived from A3.01 cells which is a subclone of the CEM cell line. The data below indicates the following points:
Chronically HIV-1 infected cell lines. HIV-1 chronically infected T cell line, ACH-2^12, and HIV-1 chronically infected promonocytic cell line, U1 13, were continuously maintained in RPMI 1640 with 10% fetal calf serum (FCS). For experiments, the cell lines were only used in the […] of growth. Cells (0.5×10^6 cells/well) and either various concentrations of suksdorfin or medium alone were added to 24-well plates in the presence or absence of PMA (10^-8 M). After 72 hours at 37° C. and 5% CO2, an aliquot of the cell-free supernatants were collected and analyzed for p24 antigen by ELISA (see below for details of p24 antigen ELISA).

[4] = Human immunodeficiency virus 1, H9, Table 3, H9 lymphocytes, read-out: EC50
[5] = H9, Table 3, H9 lymphocytes, read-out: IC50
[6] = H9, Table 14, read-out: IC50 (μM)^a
[7] = H9, concentration which inhibits uninfected cell growth by 50%, read-out: IC50
[8] = Human immunodeficiency virus 1, H9, acutely infected H9 cells, concentration which inhibits viral replication by 50%, Inactive = No suppression of HIV-1 replication in H9 cells, read-out: EC50
[9] = Human immunodeficiency virus 1, Table 14, concentration which inhibits viral replication by 50%, Inactive = No suppression of HIV-1 replication in H9 cells, read-out: IC50 (μM)^b
[10] = IC50 for cell growth inhibition divided by EC50 for HIV inhibition, H9
[11] = H9, Table 17, uninfected H9 cell growth, read-out: IC50
[12] = Human immunodeficiency virus 1, H9, Table 17, acutely infected H9 lymphocytes, read-out: EC50
[13] = Table 14, concentration which inhibits viral replication by 50%, Inactive = No suppression of HIV-1 replication in H9 cells
[14] = concentration which inhibits viral replication by 50%, Inactive = No suppression of HIV-1 replication in H9 cells

Compound: CC(=O)OC1Cc2c(ccc3ccc(=O)oc23)OC1(C)C (racemic) [Compound 25]
- pEC50 [1, 4]: < 4.16

Compound: CC(C)CC(=O)OC1Cc2c(ccc3ccc(=O)oc23)OC1(C)C (racemic) [Compound 26]
- pEC50 [1, 4]: < 4.92

Compound: CC(=O)O[C@@H]1c2c(ccc3ccc(=O)oc23)OC(C)(C)[C@@H]1OC(C)=O (relative stereo) [Compound 12]
- pEC50 [1, 4]: < 3.54

Compound: CC(C)CC(=O)O[C@@H]1c2c(ccc3ccc(=O)oc23)OC(C)(C)[C@@H]1OC(=O)CC(C)C (relative stereo) [Compound 13]
- pEC50 ([1]; Human immunodeficiency virus 1, H9, Table 3, H9 lymphocytes): < 3.63

Compound: CC(=O)O[C@@H]1[C@@H](OC(=O)c2cccc(Cl)c2)c2c(ccc3ccc(=O)oc23)OC1(C)C (relative stereo) [Compound 27]
- pEC50 [1, 4]: < 4.35

Compound: CC(C)CC(=O)O[C@@H]1[C@@H](OC(=O)c2cccc(Cl)c2)c2c(ccc3ccc(=O)oc23)OC1(C)C (relative stereo) [Compound 28]
- pIC50 [2, 5]: 5.00
- pEC50 [1, 4]: 5.08
- Therapeutic Index ([1]; Table 3, H9 lymphocytes): 1.2

Compound: CO[C@@H]1[C@@H](OC(=O)c2cccc(Cl)c2)c2c(ccc3ccc(=O)oc23)OC1(C)C (relative stereo) [Compound 29]
- pIC50 [2, 5]: < 4.32
- pEC50 [1, 4]: 3.62
- Therapeutic Index ([1]; Table 3, H9 lymphocytes): > 0.2

Compound: CC1(C)Oc2ccc3ccc(=O)oc3c2[C@H](OC(=O)c2cccc(Cl)c2)[C@H]1OCc1ccccc1 (relative stereo) [Compound 30]
- pEC50 [1, 4]: 5.21

Compound: CCC(C)C(=O)OC1C(O)c2c(ccc3ccc(=O)oc23)OC1(C)C (centres unmarked) [8 and 9]
- pEC50 [1, 4]: < 4.24

Compound: CCC(C)C(=O)OC1c2c(ccc3ccc(=O)oc23)OC(C)(C)C1O (centres unmarked) [10 and 11]
- pEC50 [1, 4]: < 4.24

Compound: CCC(C)C(=O)OC1c2c(ccc3ccc(=O)oc23)OC(C)(C)C1OC(=O)C(C)CC (centres unmarked) [14 and 15]
- pEC50 [1, 4]: 5.15

Compound: COc1c2ccoc2cc2oc(=O)ccc12 [Bergapten, bergapten, reference compound]
- IC50 [2, 6]: > 92.6 µM
- pIC50 [2, 7]: < 4.03
- pEC50 [1, 8]: 4.52
- IC50 [1, 9]: 30.1 µM
- Therapeutic Index [1, 10]: > 3.1
- Therapeutic Index ([1]; Table 14): > 3.1

Compound: C/C=C(/C)C(=O)OC(C)(C)[C@@H]1Cc2c(ccc3ccc(=O)oc23)O1 [Columbianadin, columbianadin, reference compound]
- IC50 [2, 6]: > 6.1 µM
- pIC50 [2, 7]: < 5.21
- pEC50 [1, 8]: 5.34
- IC50 [1, 9]: 4.6 µM
- Therapeutic Index [1, 10]: > 1.3
- Therapeutic Index ([1]; Table 14): > 1.3

Compound: CC1(C)Oc2ccc3ccc(=O)oc3c2[C@H](OC(=O)[C@@]23CC[C@@](C)(C(=O)O2)C3(C)C)[C@@H]1OC(=O)[C@@]12CC[C@@](C)(C(=O)O1)C2(C)C [Compound 17, 3',4'-Di-O-(-)-Camphanoyl-(-)-cis-Khellactone]
- pIC50 [2, 5]: 2.77
- pIC50 [2, 11]: 2.77
- pEC50 [1, 4]: 4.29
- pEC50 [1, 12]: 4.29
- Therapeutic Index [1, 10]: > 1.3
- Therapeutic Index ([1]; Table 3, H9 lymphocytes): > 33.3
- Therapeutic Index ([1]; Table 17, H9): > 33.3
- anti-HIV activity in H9 cells (in words) [1]: much less activity than that of compound 16
- anti-HIV activity in H9 cells (in words) ([1]; listed as 3): much less anti-HIV activity than 2

Compound: CC1(C)Oc2ccc3ccc(=O)oc3c2[C@H](OC(=O)[C@@]23CC[C@@](C)(C(=O)O2)C3(C)C)[C@H]1OC(=O)[C@@]12CC[C@@](C)(C(=O)O1)C2(C)C [Compound 44, 31'4'-Di-O-(-)-Camphanoyl-(-)-trans-Khellactone]
- Therapeutic Index ([1]; Table 3, H9 lymphocytes): > 1
- Therapeutic Index ([1]; Table 14): 1.3
- Therapeutic Index ([1]; Table 17, H9): > 1
- anti-HIV activity in H9 cells (in words) [1]: much less activity than that of compound 16
- anti-HIV activity in H9 cells (in words) ([1]; listed as 4): much less anti-HIV activity than 2

Compound: CC1(C)Oc2ccc3ccc(=O)oc3c2[C@@H](OC(=O)[C@@]23CC[C@@](C)(C(=O)O2)C3(C)C)[C@@H]1OC(=O)[C@@]12CC[C@@](C)(C(=O)O1)C2(C)C [Compound 45, 3', 4'-Di-O-(-)-Camphanoyl-(+)-trans-Khellactone]
- pIC50 [2, 5]: > 4.49
- pIC50 [2, 11]: < 4.49
- pEC50 [1, 4]: 4.49
- pEC50 [1, 12]: 4.49
- Therapeutic Index ([1]; Table 3, H9 lymphocytes): > 1
- Therapeutic Index ([1]; Table 17, H9): > 1
- anti-HIV activity in H9 cells (in words) [1]: much less activity than that of compound 16
- anti-HIV activity in H9 cells (in words) ([1]; listed as 5): much less anti-HIV activity than 2

Compound: COc1cc2cc(Oc3ccc4ccc(=O)oc4c3)c(=O)oc2cc1O [Daphnoretin, daphnoretin, reference compound]
- IC50 (μM)^b [1, 13]: Inactive
- anti-HIV activity in H9 cells (in words) [1]: no activity
- EC50 [1, 14]: Inactive

Compound: CC(C)=CCOc1c2occc2cc2ccc(=O)oc12 [Imperatorin, imperatorin, reference compound]
- pIC50 ([2]; H9, concentration which inhibits uninfected cell growth by 50%): < 4.13
- IC50 ([2]; H9, read-out: IC50 (μM)^a, Table 14): > 74.1 µM
- pEC50 ([1]; Human immunodeficiency virus 1, H9, acutely infected H9 cells, concentration which inhibits viral replication by 50%, Inactive = No suppression of HIV-1 replication in H9 cells): 4.95
- IC50 ([1]; Human immunodeficiency virus 1, H9, read-out: IC50 (μM)^b): 11.1 µM
- Therapeutic Index [1, 10]: > 6.7
- Therapeutic Index ([1]; Table 14): > 6.7

Compound: CC(C)=CCOc1c2ccoc2cc2oc(=O)ccc12 [Isoimperatorin, isoimperatorin, reference compound]
- IC50 [2, 6]: > 185 µM
- pIC50 [2, 7]: < 3.73
- pEC50 [1, 8]: 4.39
- IC50 [1, 9]: 40.7 µM
- Therapeutic Index [1, 10]: > 4.6
- Therapeutic Index ([1]; Table 14): > 4.6

Compound: CC(C)(O)[C@H]1Cc2cc3ccc(=O)oc3cc2O1 [Nodakenetin, nodakenetin, reference compound]
- IC50 (μM)^b [1, 13]: Inactive
- EC50 [1, 14]: Inactive

Compound: CC(C)(O[C@@H]1O[C@H](CO)[C@@H](O)[C@H](O)[C@H]1O)[C@H]1Cc2cc3ccc(=O)oc3cc2O1 [Nodakenin, nodakenin, reference compound]
- IC50 (μM)^b [1, 13]: Inactive
- EC50 [1, 14]: Inactive

Compound: CCCCCCCCCCCCCC(=O)O[C@@H]1[C@@H](C)[C@@]2(O)[C@@H](C=C(CO)C[C@]3(O)C(=O)C(C)=C[C@@H]23)[C@@H]2C(C)(C)[C@]12OC(C)=O [PMA, phorbol 12-myristate 13-acetate, reference compound]
- induction of virus replication compared to medium alone [3]: 27 fold

Compound: acetylnodakenin [reference compound]
- IC50 (μM)^b [1, 13]: Inactive
- EC50 [1, 14]: Inactive
